Assay results as given in patent US10882856B2 (BeiGene, Ltd., priority 2017, dated 2021).

Columns and labels:
[1] = target: T1, cellular TDO2 in HEK293-TDO2 cells (Homo sapiens, UniProt P48775); test: 293-TDO2 cell-based assay (Kyn colorimetric); details: 48 hours of incubation
T1 construct: expressed in transfected cells; host or cells: HEK293 (ATCC), stably transfected
In short: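 Kyn formed from L-Trp was read colorimetrically at 480 nm (TCA deproteinisation, then 2% 4-(dimethylamino)benzaldehyde). Compounds were added to 293-TDO2 cells 4 h post-seeding and left 48 h at 37° C. A four-parameter logistic model gave IC50 values.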

[2] = target: T2, IDO1 (Homo sapiens, UniProt P14902); test: IDO1 enzymatic assay; assay type: biochemical; design: His tag (N); made in house; host or cells: E. coli; details: read-out: Enzyme IC50 IDO1
T2 sequence (P14902 whole entry): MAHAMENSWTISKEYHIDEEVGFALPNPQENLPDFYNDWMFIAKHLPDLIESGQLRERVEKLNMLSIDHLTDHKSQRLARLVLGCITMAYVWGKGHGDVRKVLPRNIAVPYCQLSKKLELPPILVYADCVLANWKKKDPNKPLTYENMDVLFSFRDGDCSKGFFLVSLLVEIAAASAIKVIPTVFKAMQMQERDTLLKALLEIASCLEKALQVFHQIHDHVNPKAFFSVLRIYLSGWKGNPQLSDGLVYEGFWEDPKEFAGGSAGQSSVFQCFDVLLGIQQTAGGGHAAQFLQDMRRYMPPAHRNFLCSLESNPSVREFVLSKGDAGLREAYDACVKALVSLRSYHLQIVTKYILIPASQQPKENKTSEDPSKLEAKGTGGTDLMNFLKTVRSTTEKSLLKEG
In short: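 Assays were run in 50 mM potassium phosphate pH 7.5 with 0.1% BSA for 1.5 hours at 24 °C. Each contained 50 nM E. coli-purified, N-terminally His-tagged IDO1, compound, 1.3 mM D-tryptophan, 5 mM L-ascorbic acid, methylene blue and 0.4 mg/mL catalase. IC50 was calculated from remaining enzyme activity across a rising compound series, with activity taken as the slope of N'-formylkynurenine formation read continuously at 321 nm for 1 hour.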

[3] = target: T3, TDO (Homo sapiens, UniProt P48775); test: TDO enzymatic assay; assay type: biochemical; details: read-out: Enzyme IC50 TDO
T3 construct: His tag (C); made in house; host or cells: E. coli
T3 sequence (P48775 whole entry): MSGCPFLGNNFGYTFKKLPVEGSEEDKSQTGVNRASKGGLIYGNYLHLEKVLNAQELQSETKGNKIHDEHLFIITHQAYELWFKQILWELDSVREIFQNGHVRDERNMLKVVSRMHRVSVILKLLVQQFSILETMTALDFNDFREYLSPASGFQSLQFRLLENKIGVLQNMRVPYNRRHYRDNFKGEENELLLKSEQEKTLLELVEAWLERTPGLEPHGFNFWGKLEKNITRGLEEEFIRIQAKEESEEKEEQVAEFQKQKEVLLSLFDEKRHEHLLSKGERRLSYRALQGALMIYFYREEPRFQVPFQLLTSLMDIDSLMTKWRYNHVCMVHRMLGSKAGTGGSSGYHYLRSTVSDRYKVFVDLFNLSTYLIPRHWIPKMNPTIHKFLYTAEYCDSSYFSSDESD
In short: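 Recombinant C-terminally His-tagged TDO purified from E. coli (100 nM) was tested with 0.5 mM L-tryptophan (Km concentration). Otherwise the IDO1 enzymatic set-up was used: ascorbic acid, methylene blue, catalase, and potassium phosphate pH 7.5 with BSA, incubated 1.5 hours. N'-formylkynurenine absorbance was read continuously at 321 nm, and activity was taken as the slope. IC50 was calculated from remaining enzyme activity across increasing compound concentrations.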

[4] = target: T2, IDO1; test: Hela cell-based IDO1 assay; details: Hela cells
In short: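 HeLa cells were plated at 8000 per well in 96-well plates containing phenol red-free DMEM with 10% FBS, and after 4 hours compound dilutions made in DMSO were added together with IFN-γ (final 100 ng/mL) and 0.4 mM L-Trp before 48 hours at 37 °C, 5% CO2. Supernatants were deproteinised with trichloroacetic acid, mixed with 2% 4-(dimethylamino)benzaldehyde and read at 480 nm for kynurenine. Four-parameter logistic fits were run in XLfit. Potency was derived from these fits.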

T1 sequence (P48775 whole entry): as above

Row | EC50 [1] [nM] | IC50 [2] [nM] | IC50 [3] [nM] | EC50 [4] [nM] | Compound
1 | > 10000 | 17 | 5600 | 67 | OC(c1c(C2CC2)ccc2cncn12)[C@H]1CC[C@H](c2ccc(OC3CCOCC3)cc2)CC1 (single isomer, unassigned) [Example D114c]
2 | > 10000 | 27 | 8300 | 180 | COc1cccc([C@H]2CC[C@H]([C@H](O)c3c(C4CC4)ccn4cncc34)CC2)c1 (single isomer, unassigned) [Example C114a]
3 | > 10000 | 17 | 4200 | 110 | COc1ccc([C@H]2CC[C@H]([C@H](O)c3c(C4CC4)ccn4cncc34)CC2)cc1 [Example C101a, (S)-(7-cyclopropylimidazo[1,5-a]pyridin-8-yl)(4-(4-methoxyphenyl)cyclohexyl)methanol]
4 | > 10000 | 17 | 1400 | 777 | O[C@H](c1cc(Cl)cc2cncn12)[C@H]1CC[C@H](c2cccc3ccccc32)CC1 (single isomer, unassigned) [Example E103a]
5 | > 10000 | 39 | 3600 | 59 | O[C@H](c1c(C2CC2)ccn2cncc12)[C@H]1CC[C@H](c2cccc3ccccc32)CC1 (single isomer, unassigned) [Example C121a]
6 | > 10000 | 27 | 1700 | 2530 | O[C@H](c1cc(Cl)cc2cncn12)[C@H]1CC[C@H](c2ccc(Cl)cc2)CC1 (single isomer, unassigned) [Example E101a]
7 | > 10000 | 41 | 6100 | 915 | CC(=O)c1ccc([C@H]2CC[C@H]([C@H](O)c3c(C4CC4)ccn4cncc34)CC2)cc1 [Example C125, 1-(4-((1 S,4r)-4-((S)-(7-cyclopropylimidazo[1,5-a]pyridin-8-yl)(hydroxy)methyl)cyclohexyl)phenyl)ethan-1-one]
8 | > 10000 | 35 | 21000 | 283 | Cc1ccc([C@H]2CC[C@H]([C@H](O)c3c(C4CC4)ccn4cncc34)CC2)cc1 (single isomer, unassigned) [Example C110a]
9 | > 10000 | 19 | 13000 | 277 | O[C@H](c1c(C2CC2)ccc2cncn12)[C@H]1CC[C@H](c2ccc(F)c(F)c2F)CC1 (single isomer, unassigned) [Example D145a]
10 | > 10000 | 29 | 3300 | 520 | Cn1cc(-c2ccc(N3CCC(C(O)c4c(C5CC5)ccn5cncc45)CC3)cc2)cn1 (centres unmarked) [Example C152, (7-cyclopropylimidazo[1,5-a]pyridin-8-yl)(1-(4-(1-methyl-1H-pyrazol-4-yl)phenyl)piperidin-4-yl)methanol]
11 | > 10000 | 39 | 7400 | 1100 | O[C@H](c1c(C2CC2)ccn2cncc12)[C@H]1CC[C@H](c2ccc(C(F)(F)F)nc2)CC1 (single isomer, unassigned) [Example C120a]
12 | > 10000 | 31 | 6500 | 109 | O[C@H](c1c(C2CC2)ccn2cncc12)[C@H]1CC[C@H](c2ccc(F)cc2)CC1 (single isomer, unassigned) [Example C107a]
13 | > 10000 | 28 | 8000 | 131 | Cc1cccc([C@H]2CC[C@H]([C@H](O)c3c(C4CC4)ccn4cncc34)CC2)c1 (single isomer, unassigned) [Example C111a]
14 | > 10000 | 20 | 11000 | 38 | O[C@H](c1c(C2CC2)ccc2cncn12)[C@H]1CC[C@H](c2ccnc3ccccc32)CC1 (single isomer, unassigned) [Example D140a]
15 | > 10000 | 18 | 2500 | 50 | Oc1ccc([C@H]2CC[C@H](C(O)c3c(C4CC4)ccn4cncc34)CC2)cc1 (single isomer, unassigned) [Example C104a]
16 | > 10000 | 3500 | 1400 | > 10000 | O[C@@H](c1cc(Cl)cc2cncn12)[C@H]1CC[C@H](c2ccc3ccccc3c2)CC1 (single isomer, unassigned) [Example E104b]

Row | EC50 [1] [nM] | IC50 [2] [nM] | IC50 [3] [nM] | EC50 [4] [nM] | Compound
17 | > 10000 | 36 | 16000 | 471 | O[C@H](c1c(C2CC2)ccn2cncc12)[C@H]1CC[C@H](c2ccc(Cl)cc2)CC1 (single isomer, unassigned) [Example C102a]
18 | > 10000 | 25 | 11000 | 32 | O[C@H](c1c(C2CC2)ccc2cncn12)[C@H]1CC[C@H](c2cccc3ccccc32)CC1 (single isomer, unassigned) [Example D135a]
19 | > 10000 | 28 | 5700 | 89 | COc1ccccc1[C@H]1CC[C@H]([C@H](O)c2c(C3CC3)ccn3cncc23)CC1 (single isomer, unassigned) [Example C113a]
20 | > 10000 | 21 | 6700 | 220 | O[C@H](c1c(C2CC2)ccc2cncn12)[C@H]1CC[C@H](c2ccc3sccc3c2)CC1 (single isomer, unassigned) [Example D133a]
21 | > 10000 | 88 | – | 256 | OC(c1c(C2CC2)ccn2cncc12)C1CCC(c2cccc(Cl)c2)CC1 (centres unmarked) [Example C133, (4-(3-chlorophenyl)cyclohexyl)(7-cyclopropylimidazo[1,5-a]pyridin-8-yl)methanol]
22 | > 10000 | 36 | – | 1260 | OC(c1c(C2CC2)ccc2cncn12)[C@H]1CC[C@H](c2ccc(C(F)(F)F)nc2)CC1 (single isomer, unassigned) [Example D107a]
23 | > 10000 | 37 | – | 118 | O=C(COc1ccc([C@H]2CC[C@H]([C@H](O)c3c(C4CC4)ccc4cncn34)CC2)cc1)c1ccccc1 [Example D152, 2-(4-((1S,4r)-4-((S)-(6-cyclopropylimidazo[1,5-a]pyridin-5-yl)(hydroxy)methyl)cyclohexyl)henoxy)-1-phenylethan-1-one]
24 | > 10000 | 18 | – | 31 | O[C@H](c1c(C2CC2)ccc2cncn12)[C@H]1CC[C@H](c2ccc(F)c(F)c2)CC1 (single isomer, unassigned) [Example D126a]
25 | > 10000 | 42 | – | 96 | OC(c1c(C2CC2)ccc2cncn12)C1CCC(c2cc(F)cc(F)c2)CC1 (centres unmarked) [Example D144, (6-cyclopropylimidazo[1,5-a]pyridin-5-yl)(4-(3,5-difluorophenyl)cyclohexyl)methanol]
26 | > 10000 | 65 | – | 157 | OC(c1c(C2CC2)ccn2cncc12)C1CCC(c2ccc(F)cc2)CC1 (racemic) [Example C107, (7-cyclopropylimidazo[1,5-a]pyridin-8-yl)(4-(4-fluorophenyl)cyclohexyl)methanol]
27 | > 10000 | 18 | – | 33 | O[C@H](c1c(C2CC2)ccc2cncn12)C1CCN(c2cccc(Cl)c2)CC1 (single isomer, unassigned) [Example D173a]
28 | > 10000 | 56 | – | 236 | NC(=O)c1ccc([C@H]2CC[C@H]([C@H](O)c3c(C4CC4)ccn4cncc34)CC2)cc1 [Example C124]
29 | > 10000 | 43 | – | 50 | Oc1ccccc1C1CCC(C(O)c2c(C3CC3)ccc3cncn23)CC1 (centres unmarked) [Example D112, 2-(4-((6-cyclopropylimidazo[1,5-a]pyridin-5-yl)(hydroxy)methyl)cyclohexyl)phenol]
30 | > 10000 | 270 | – | 4840 | OC(c1cc(C2CC2)cc2cncn12)C1CCC(c2ccc(Cl)cc2)CC1 (centres unmarked) [Example E102, (4-(4-chlorophenyl)cyclohexyl)(7-cyclopropylimidazo[1,5-a]pyridin-5-yl)methanol]
31 | > 10000 | 4300 | – | 5680 | CC(C)c1ccc2cncn2c1[C@H](O)[C@H]1CC[C@H](c2ccc(Cl)cc2)CC1 (single isomer, unassigned) [Example D115b]
32 | > 10000 | 26 | – | 492 | OC(c1c(C2CC2)ccc2cncn12)C1CCC(c2cc(F)c(F)cc2F)CC1 (centres unmarked) [Example D149, (6-cyclopropylimidazo[1,5-a]pyridin-5-yl)(4-(2,4,5-trifluorophenyl)cyclohexyl)methanol]
